pEC50: −log10 of the molar value. Bounds are passed on as bounds.

Experiment [1] has as its system recombinant human CFTR carrying the premature stop codon (PTC) mutation G542X. Put plainly: CFTR-PTC mutant translation readthrough, Nanoluc tagged CFTR luminescence (G542X cell line). It counts as cell-based. Conditions: in combination with G418, G542X cell line; for CFTR G542X ACTIVITY Fold 10 μM G-418: fold over 10 μM G-418; for pEC50: 16HBE cells. The method, then:
(§1) 16HBE human bronchial epithelial cells (stably over-expressing recombinant human CFTR carrying the premature stop codon (PTC) mutation G542X or R1162X along with a Nanoluc tag incorporated into the CFTR channel within extracellular loop 4 in G542X cell line or C-terminus end in the R1162X cell line were seeded at 0.01×10^6 cells/well and grown in Minimal Essential Medium (MEM) as monolayers in 384 well plates and incubated at 37° C. with 5% CO2. Media was changed every other day until day of experiment. Agents to be evaluated were made up in separate 384 well, polypropylene plates at a 2X the final desired test concentration. Test agent 10-point concentration response curves were constructed using the Labcyte Echo 555 acoustic dispenser. Test agents were typically tested at a max final test concentrations of 50 μM with sequential 2-fold lower concentrations below this in the absence or presence of a fixed 10 μM concentration of the aminoglycoside G418 made up in MEM growth media (reduced Serum Media+HEPES Buffer+2.4 g/L Sodium Bicarbonate+L-Glutamine containing CFTR corrector VX-809 (3 μM)). Treatment with 10 μM G418 alone produced approximately 10% of the response observed with a maximally effective concentration of G418 (typically 125-250 μM). Test agent effects in presence of 10 μM G418 were compared to control wells on the plate containing a maximally effective concentration of G418 (typically 125-250 μM) made up in the same media. 25 ul of test agents/control solutions were transferred from the compound plate to the cell plate, which already contained 25 ul/well of cell plating media, using an Integra Viaflo 384. Cell plates were incubated with the compounds for 48 hours, at which time they were processed using Nanoluc luminescence Kit (Promega Nano-Glo Live Cell Assay System) to measure CFTR-PTC mutant translation readthrough. Luminescence was measured as follows. Cell plates were removed from the incubator and allowed to equilibrate to room temperature for 20 minutes. Media was removed from all wells and the plates were blotted to remove excess remaining volume. Nano-Glo Live Cell Substrate was diluted 1:20 in the appropriate amount of Nano-Glo LCS Dilution Buffer to accommodate the number of cell plates being tested. The substrate/dilution buffer mix was then diluted 1:3 with MEM media to make the appropriate volume for the number of plates being tested. The substrate/dilution buffer/OptiMEM mix was added across the Nanoluc testing cell plates and the plates were read for luminescence signal immediately. Test agent effects on CFTR translation readthrough was determined by normalizing any observed increase in luminescence induced by 48 hours pretreatment with test compound to the magnitude of luminescence increase produced by pretreatment with a maximally effective concentration of the reference readthrough enhancing agent G418 (125-250 μM).

Experiment [2] concerns recombinant human CFTR carrying the premature stop codon (PTC) mutation R1162X. The experiment is described as follows: CFTR-PTC mutant translation readthrough, Nanoluc tagged CFTR luminescence (R1162X cell line). It counts as cell-based. Conditions: for CFTR R1162X ACTIVITY Fold 10 μM G-418: fold over 10 μM G-418, in combination with G418; for pEC50: in combination with G418, 16HBE cells, read-out: CFTR R1162X ACTIVITY EC50. How it is done:
as §1

For the compound `NC(=O)C1CN(c2ncc(OCc3c(Cl)cccc3C(F)(F)F)cn2)CCO1` (stereo not drawn), in experiment [1], the “CFTR G542X ACTIVITY Fold 10 μM G-418” value was “A′ (A′ = ≥10X)” and the pEC50 – broadly, the EC50 on a negative log10 scale, so that one unit is a factor of ten – was 5.00 to 6.00. Further, in experiment [2], the “CFTR R1162X ACTIVITY Fold 10 μM G-418” value is reported as “A′ (A′ = ≥10X)” and the negative-log EC50 (pEC50) is 5.00 to 6.00.

For the compound `NC(=O)[C@@H]1CCN(c2ncc(OCc3c(Cl)cccc3C(F)(F)F)cn2)C1`, in experiment [1], the “CFTR G542X ACTIVITY Fold 10 μM G-418” value is “A′ (A′ = ≥10X)” and the pEC50 is 5.00 to 6.00. In addition, in experiment [2], the “CFTR R1162X ACTIVITY Fold 10 μM G-418” value is “A′ (A′ = ≥10X)” and the negative-log EC50 (pEC50) is 5.00 to 6.00.

Turning to `OCC1CN(c2ncc(OCc3c(Cl)cccc3C3CC3)cn2)CCO1` (stereo not drawn), in experiment [1], the “CFTR G542X ACTIVITY Fold 10 μM G-418” value is on record as “A′ (A′ = ≥10X)” and the pEC50 was over 6.00. Also, in experiment [2], the “CFTR R1162X ACTIVITY Fold 10 μM G-418” value was “A′ (A′ = ≥10X)” and the pEC50 was over 6.00.

Regarding `Cc1cccc(C(C)(F)F)c1COc1ccc(-n2cc(CO)nn2)cc1`, in experiment [1], the “CFTR G542X ACTIVITY Fold 10 μM G-418” value is listed as “B′ (B′ = ≥5X to <10X)” and the negative logarithm of the EC50 (pEC50) is 5.00 to 6.00. Besides, in experiment [2], the “CFTR R1162X ACTIVITY Fold 10 μM G-418” value is “B′ (B′ = ≥5X to <10X)” and the pEC50 was 5.00 to 6.00.

For `Cc1cccc(C)c1COc1ccc(-n2ccc(CO)n2)nc1` [[1-[5-[(2,6-dimethylphenyl)methoxy]-2-pyridyl]pyrazol-3-yl]methanol], in experiment [1], the “CFTR G542X ACTIVITY Fold 10 μM G-418” value is “A′ (A′ = ≥10X)” and the negative-log EC50 (pEC50) is 5.00 to 6.00. Besides, in experiment [2], the “CFTR R1162X ACTIVITY Fold 10 μM G-418” value is “A′ (A′ = ≥10X)” and the pEC50 is 5.00 to 6.00.

Turning to `CN1C(=O)CN(c2ncc(OCc3c(Cl)cccc3C(F)(F)F)cn2)CC1CO` (stereo not drawn), in experiment [1], the “CFTR G542X ACTIVITY Fold 10 μM G-418” value is reported as “C′ (C′ = <5X)” and the pEC50 was over 6.00. In experiment [2], the “CFTR R1162X ACTIVITY Fold 10 μM G-418” value is “C′ (C′ = <5X)” and the pEC50 was 5.00 to 6.00.

Turning to `Cc1cccc(C(F)(F)F)c1COc1cnc(N2CC[S+]([O-])CC2)nc1`, in experiment [1], the “CFTR G542X ACTIVITY Fold 10 μM G-418” value was “A′ (A′ = ≥10X)” and the pEC50 is 5.00 to 6.00. In addition, in experiment [2], the “CFTR R1162X ACTIVITY Fold 10 μM G-418” value is on record as “A′ (A′ = ≥10X)” and the pEC50 is 5.00 to 6.00.

For the compound `FC(F)(F)c1cccc(Cl)c1COc1cnc(-n2ncc(-c3ccccn3)n2)nc1`, in experiment [1], the “CFTR G542X ACTIVITY Fold 10 μM G-418” value is given as “A′ (A′ = ≥10X)” and the pEC50 is over 6.00. In addition, in experiment [2], the “CFTR R1162X ACTIVITY Fold 10 μM G-418” value is “A′ (A′ = ≥10X)” and the pEC50 is over 6.00.

For the compound `Cc1cccc(C(F)(F)F)c1COc1cnc(N2C(=O)CN(C)C2=O)nc1`, in experiment [1], the “CFTR G542X ACTIVITY Fold 10 μM G-418” value is listed as “B′ (B′ = ≥5X to <10X)” and the pEC50 was under 5.00. For the same compound, in experiment [2], the “CFTR R1162X ACTIVITY Fold 10 μM G-418” value is listed as “C′ (C′ = <5X)” and the pEC50 was under 5.00.

As to `O=C(O)c1ncn(-c2ccc(OCc3c(Cl)cccc3C(F)(F)F)cn2)n1` [1-[5-[[2-chloro-6-(trifluoromethyl)phenyl]methoxy]-2-pyridyl], in experiment [1], the “CFTR G542X ACTIVITY Fold 10 μM G-418” value is reported as “B′ (B′ = ≥5X to <10X)” and the pEC50 is 5.00 to 6.00. The pEC50 in experiment [2] is over 6.00.

For the compound `OCC1CN(c2ncc(OCc3c(Cl)cccc3Cl)cn2)CCN1` (stereo not drawn) [[4-[5-[(2,6-dichlorophenyl)methoxy]pyrimidin-2-yl]piperazin-2-yl]methanol], in experiment [1], the “CFTR G542X ACTIVITY Fold 10 μM G-418” value is given as “A′ (A′ = ≥10X)” and the pEC50 was 5.00 to 6.00. Moreover, in experiment [2], the “CFTR R1162X ACTIVITY Fold 10 μM G-418” value is recorded as “A′ (A′ = ≥10X)” and the pEC50 was 5.00 to 6.00.

As to `O=C1OC(CO)CN1c1ccc(OCc2c(Cl)cccc2Cl)c(F)c1` (stereo not drawn), in experiment [1], the “CFTR G542X ACTIVITY Fold 10 μM G-418” value is on record as “B′ (B′ = ≥5X to <10X)” and the pEC50 was 5.00 to 6.00. In experiment [2], the “CFTR R1162X ACTIVITY Fold 10 μM G-418” value is listed as “C′ (C′ = <5X)” and the pEC50 was 5.00 to 6.00.

With `O=c1[nH]ncc2cc(OCc3c(Cl)cccc3Cl)ccc12` [6-[(2,6-dichlorophenyl)methoxy]-2H-phthalazin-1-one], in experiment [1], the “CFTR G542X ACTIVITY Fold 10 μM G-418” value is recorded as “B′ (B′ = ≥5X to <10X)” and the pEC50 was under 5.00. For the same compound, in experiment [2], the “CFTR R1162X ACTIVITY Fold 10 μM G-418” value was “A′ (A′ = ≥10X)” and the pEC50 is 5.00 to 6.00.

(Values after patent publication US20250228865A1, “COMPOUNDS FOR ENHANCING READ THROUGH OF GENES CONTAINING PREMATURE TERMINATION CODONS AND METHODS FOR MAKING AND USING THE SAME” (Sanofi US Services Inc., priority 2022, published 2025).)
